# According to patent US10858316B2, “Small molecule inhibitors of the MCL-1 oncoprotein and uses thereof” (University of Maryland, Baltimore, priority 2015, dated 2020):
# Molecular target: Mcl-1 (Homo sapiens (Human), UniProt Q07820)
# Assay: Fluorescence polarization competition assay (FPCA), Mcl-1 / FITC-Bak BH3 peptide
# Format: binding
# Details: FPC assay; read-out: Mcl-1 Ki
# Description: The tagged protein was initially purified from the crude cell lysate by immobilized metal affinity chromatography (IMAC) chromatography (GE Healthcare Life Sciences), and after dialysis to remove the imidazole the affinity tag was cleaved using PreScission Protease (GE Healthcare Life Sciences). A Sephacryl S-200 size exclusion column was used as a final purification step before the protein was concentrated with a 10,000 MWCO centifugal filter concentrator (Millipore).
# Fluorescence polarization experiments were conducted using a BMG PHERAstar FS multimode microplate reader equipped with two PMTs for simultaneous measurements of the perpendicular and parallel fluorescence emission. The assays were performed in black polypropylene 384-well microplate (Costar) with a final volume of 20 microliter. […] Regression analysis was carried out using Origin (OriginLab, Northampton, Mass.) to fit the data to the Hill equation (1) to determine the initial binding affinity (KD) and the IC50 in the FPCA. For the fluorescence polarization competition titrations, an equation derived by Nikolovska-Coleska et al. was used to calculate the Ki from the IC50 data.
# The target molecules were assayed for their abilities to disrupt the Mcl-1-Bak-BH3 PPI in a fluorescence polarization competition (FPC) assay with Mcl-1 and FITC-labeled Bak-BH3 peptide. Further details on the FPC assay can be found in the Supporting Information.
# Mcl-1, sequence (Q07820 172-327): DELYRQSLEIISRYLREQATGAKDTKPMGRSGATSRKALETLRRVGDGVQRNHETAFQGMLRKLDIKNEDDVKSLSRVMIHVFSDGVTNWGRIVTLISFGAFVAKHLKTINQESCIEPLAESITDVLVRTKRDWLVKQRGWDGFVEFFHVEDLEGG
row,SMILES,Ki [µM]
1,O=C(O)C1Cc2ccccc2N(S(=O)(=O)c2ccccc2)C1 (racemic) [±-8a],193

# Same assay, conditions: FPCA
row,SMILES,Binding affinity to Mcl-1 in vitro
1,COC(=O)C1Cc2ccccc2N(S(=O)(=O)c2ccc(Oc3cc(C)c(Cl)c(C)c3)cc2)C1 (racemic) [±-9],no appreciable affinity

# Same assay, conditions: FPCA with FITC-Bak; Ki from IC50 by Nikolovska-Coleska equation; listed as 8c; read-out: Mcl-1 Ki
row,SMILES,Ki [µM]
1,CC(C)CN(c1ccc(C(=O)O)cc1)S(=O)(=O)c1ccc(-c2ccccc2)cc1 [LC-3-030 8c],16.7

# Same assay, conditions: FPCA with FITC-Bak; Ki from IC50 by Nikolovska-Coleska equation; read-out: Mcl-1 Ki
row,SMILES,Ki [µM]
1,"Cc1ccc(NS(=O)(=O)c2cc(C(=O)O)c(O)c3ccccc23)cc1 [Compound 3x, 1-Hydroxy-4-(N-(p-tolyl)sulfamoyl)-2-naphthoic Acid]",34.3 ± 1
2,CC(C)CN(c1ccc(C(=O)Oc2ccccc2)c(O)c1)S(=O)(=O)c1ccc(Oc2ccccc2)cc1 [LC-4-134 21],> 500
3,Cc1cc(OCCCN2CC(C(=O)O)Cc3ccccc32)cc(C)c1Cl (racemic) [±-11],7.77 ± 1.39
4,O=C(O)c1ccc(N(C2CCCC2)S(=O)(=O)c2ccc(-c3ccccc3)cc2)cc1O [LC-4-082 13bb],5.24 ± 0.694
5,"O=C(O)c1ccc2c(c1)CCCN2S(=O)(=O)c1ccc(F)cc1 [LC-3-010, 1-((4-fluorophenyl)sulfonyl)-1,2,3,4-tetrahydroquinoline-6-carboxylic acid]",> 1000
6,CC(C)CN(c1ccc(C(=O)O)cc1)S(=O)(=O)c1ccc2ccccc2c1 [LC-3-031 8b],> 500
7,"O=C(O)c1cc(S(=O)(=O)N2CCCCC2)c2ccccc2c1O [Compound 3i, 1-Hydroxy-4-(piperidin-1-ylsulfonyl)-2-naphthoic Acid]",2.95 ± 0.43
8,O=C(O)c1ccc(N(Cc2ccccc2)S(=O)(=O)c2ccc(-c3ccccc3)cc2)cc1O [LC-4-112 13cb],1.71 ± 0.144
9,"O=C(O)c1cc(S(=O)(=O)Nc2ccccc2)c2ccccc2c1O [Compound 3l, 1-Hydroxy-4-(N-phenylsulfamoyl)-2-naphthoic acid]",106 ± 26
10,Cc1ccc(Oc2ccc(S(=O)(=O)N(CC(C)C)c3ccc(C(=O)O)c(O)c3)cc2)cc1 [LC-4-119 13ah],2.25 ± 0.168
11,"O=C(O)c1cc(S(=O)(=O)NCc2cccc(Cl)c2)c2ccccc2c1O [Compound 3e, 4-(N-(3-Chlorobenzyl)sulfamoyl)-1-hydroxy-2-naphthoic Acid]",5.03 ± 2.78
12,"NS(=O)(=O)c1cc(C(=O)O)c(O)c2ccccc12 [Compound 3b, 1-Hydroxy-4-sulfamoyl-2-naphthoic Acid]",99
13,"O=C(O)c1cc(S(=O)(=O)Nc2ccccc2-c2ccccc2)c2ccccc2c1O [Compound 3r, 4-(N-([1,1′-Biphenyl]-2-yl)sulfamoyl)-1-hydroxy-2-naphthoic Acid]",8.5 ± 1.34
14,O=C(O)c1ccc(N(C2CCCC2)S(=O)(=O)c2ccc3ccccc3c2)cc1O [LC-4-083 13ba],24.7 ± 9.45
15,"O=C(O)c1cc(S(=O)(=O)Nc2ccc(Oc3ccccc3)cc2)c2ccccc2c1O [Compound 3bb, 1-Hydroxy-4-(N-(4-phenoxyphenyl)sulfamoyl)-2-naphthoic Acid]",1.15 ± 0.28
16,"O=C(O)c1cc(S(=O)(=O)Nc2ccc(Cl)cc2)c2ccccc2c1O [Compound 3v, 4-(N-(4-Chlorophenyl)sulfamoyl)-1-hydroxy-2-naphthoic Acid]",1.91 ± 0.26
17,O=C(O)c1ccc(N(Cc2ccccc2)S(=O)(=O)c2ccc3ccccc3c2)cc1O [LC-4-113 13ca],11.4 ± 1.57
18,CC(C)CN(c1ccc(C(=O)O)c(O)c1)S(=O)(=O)c1ccc(Oc2ccc(Cl)cc2Cl)cc1 [LC-4-111 13aj],2.74 ± 0.258
19,"Cc1cc(Oc2ccc(S(=O)(=O)N3CCCc4cc(C(=O)O)ccc43)cc2)cc(C)c1Cl [LC-3-012, 1-((4-(4-chloro-3,5-dimethylphenoxy)phenyl)sulfonyl)-1,2,3,4-tetrahydroquinoline-6-carboxylic acid]",0.332
20,CC(C)CN(c1cccc(C(=O)O)c1)S(=O)(=O)c1ccc2ccccc2c1 [4jc177-3 18ab],61.7 ± 4.73

row,SMILES,Ki [µM]
1,"O=C(O)c1cc(S(=O)(=O)Nc2cccc(Br)c2)c2ccccc2c1O [Compound 3n, 4-(N-(3-Bromophenyl)sulfamoyl)-1-hydroxy-2-naphthoic Acid]",5.64 ± 1.76
2,Cc1cc(C)cc(Oc2ccc(S(=O)(=O)N(CC(C)C)c3ccc(C(=O)O)c(O)c3)cc2)c1 [LC-4-100 13ai],2.96 ± 0.286
3,"CC(C)CN(c1ccc(Br)cc1)S(=O)(=O)c1cc(C(=O)O)c(O)c2ccccc12 [Compound 3ca, 4-(N-(4-Bromophenyl)-N-isobutylsulfamoyl)-1-hydroxy-2-naphthoic Acid]",0.566
4,"O=C(O)c1cc(S(=O)(=O)Nc2ccc(-c3ccccc3)cc2)c2ccccc2c1O [Compound 3t, 4-(N-([1,1′-Biphenyl]-4-yl)sulfamoyl)-1-hydroxy-2-naphthoic Acid]",1.54 ± 0.46
5,CC(C)CN(c1ccc(C(=O)O)c(O)c1)S(=O)(=O)c1ccc(F)cc1 [LC-5-025 13ad],99.4 ± 9.37
6,CC(C)CN(c1ccc(-c2nnn[nH]2)cc1)S(=O)(=O)c1ccc(Oc2ccccc2)cc1 [LC-5-068 24],3.3 ± 0.26
7,CC(C)CN(c1ccc(C(=O)O)cc1)S(=O)(=O)c1ccc(F)cc1 [LC-3-025 8d],> 500
8,CC(C)CN(c1ccc(C(=O)O)cc1)S(=O)(=O)c1ccc(-c2ccccc2)cc1 [LC-3-030 8c],16.7 ± 2.28
9,"O=C(O)c1cc(S(=O)(=O)NCc2ccccc2)c2ccccc2c1O [Compound 3c, 4-(N-Benzylsulfamoyl)-1-hydroxy-2-naphthoic Acid]",56.3 ± 2.1
10,O=C(O)C1Cc2ccccc2N(S(=O)(=O)c2ccccc2)C1 (racemic) [±-8a],193 ± 24
11,"O=C(O)c1cc(S(=O)(=O)Nc2ccc(Oc3ccc(Cl)cc3)cc2)c2ccccc2c1O [Compound 3bh, 4-(N-(4-(4-Chlorophenoxy)phenyl)sulfamoyl)-1-hydroxy-2-naphthoic Acid]",0.173
12,CC(=O)OCOC(=O)c1ccc(N(CC(C)C)S(=O)(=O)c2ccc(Oc3ccccc3)cc2)cc1O [LC-4-141 22],> 500
13,CC(C)CN(c1cccc(C(=O)O)c1)S(=O)(=O)c1ccccc1 [4jc177-1 18aa],> 500
14,"O=C(O)c1cc(S(=O)(=O)Nc2cccc(-c3ccccc3)c2)c2ccccc2c1O [Compound 3s, 4-(N-([1,1′-Biphenyl]-3-yl)sulfamoyl)-1-hydroxy-2-naphthoic Acid]",1.88 ± 0.62
15,COC(=O)C1Cc2ccccc2N(S(=O)(=O)c2ccc(Oc3cc(C)c(Cl)c(C)c3)cc2)C1 (racemic) [±-9],> 500
16,O=C(O)C1Cc2ccccc2N(S(=O)(=O)c2ccc(F)cc2)C1 (racemic) [±-8c],176 ± 115
17,"CN(C)S(=O)(=O)c1cc(C(=O)O)c(O)c2ccccc12 [Compound 3h, 4-(N,N-Dimethylsulfamoyl)-1-hydroxy-2-naphthoic Acid]",25.7 ± 4.86
18,"COc1c(C(=O)O)cc(S(=O)(=O)N(CC(C)C)c2ccc(Br)cc2)c2ccccc12 [Compound 3cd, 4-(N-(4-Bromophenyl)-N-isobutylsulfamoyl)-1-methoxy-2-naphthoic Acid]",23.4 ± 2.6
19,CC(C)CN(c1ccc(C#N)c(O)c1)S(=O)(=O)c1ccc(Oc2ccccc2)cc1 [LC-5-050 23],> 500
20,"COC(=O)c1cc(S(=O)(=O)N(CC(C)C)c2ccc(Br)cc2)c2ccccc2c1O [Compound 3cb, Methyl 4-(N-(4-bromophenyl)-N-isobutylsulfamoyl)-1-hydroxy-2-naphthoate]",> 500

# Same assay, conditions: read-out: Mcl-1 Ki
row,SMILES,Ki [µM]
1,"O=C(O)C1Cc2ccccc2N(S(=O)(=O)c2ccc(Br)cc2)C1 (racemic) [SF-5-135, (±)-1-((4-bromophenyl)sulfonyl)-1,2,3,4-tetrahydroquinoline-3-carboxylic acid]",> 1000
2,"O=C(O)C1Cc2ccccc2N(S(=O)(=O)c2ccc3ccccc3c2)C1 (racemic) [SF-5-134, (±)-1-(naphthalen-2-ylsulfonyl)-1,2,3,4-tetrahydroquinoline-3-carboxylic acid]",30
3,"Cc1ccc(S(=O)(=O)N(CC(C)C)c2ccc(C(=O)O)c(O)c2)cc1 [Compound 4jc117-2, 2-hydroxy-4-(N-isobutyl-4-methylphenylsulfonamido)benzoic acid]",302 ± 31.8

# Same assay, conditions: ΔG=−RTlnKi from experimental Ki
row,SMILES,Mcl-1 Exp ΔG [kcal/mol]
1,O=C(O)c1cc(S(=O)(=O)N2CCN(Cc3ccccc3)CC2)c2ccccc2c1O [3k; SF-5-307],-7.45
2,O=C(O)c1cc(S(=O)(=O)Nc2cccc(Br)c2)c2ccccc2c1O [3n; TA-1-020],-7.16
3,O=C(O)c1cc(S(=O)(=O)Nc2ccc(Oc3ccccc3)cc2)c2ccccc2c1O [3bb; SF-5-299],-8.10
4,O=C(O)c1cc(S(=O)(=O)N2CCCCC2)c2ccccc2c1O [3i; SF-5-263],-7.54
5,O=C(O)c1cc(S(=O)(=O)NCc2ccccc2Cl)c2ccccc2c1O [3d; 5JC73-2],-5.86
6,O=C(O)c1cc(S(=O)(=O)Nc2ccc(C(F)(F)F)cc2)c2ccccc2c1O [3w; 5JC73-1],-7.64
7,O=C(O)c1cc(S(=O)(=O)N2CCN(c3ccccc3)CC2)c2ccccc2c1O [3j; EW-2-051],-7.29
8,NS(=O)(=O)c1cc(C(=O)O)c(O)c2ccccc12 [3b; SF-5-294],-5.46
9,O=C(O)c1cc(S(=O)(=O)NCc2cccc(Cl)c2)c2ccccc2c1O [3e; 5JC71],-7.22
10,O=C(O)c1cc(S(=O)(=O)Nc2ccc(-c3ccccc3)cc2)c2ccccc2c1O [3t; LC-3-192],-7.93
11,O=C(O)c1cc(S(=O)(=O)NCc2ccccc2)c2ccccc2c1O [3c; SF-5-311],-5.79
12,N#Cc1cccc(NS(=O)(=O)c2cc(C(=O)O)c(O)c3ccccc23)c1 [3ad; 5JC75-2],-6.23

# More lines, now with the values ahead:
row,Mcl-1 Exp ΔG [kcal/mol],SMILES
1,-8.52,"CC(C)CN(c1ccc(Br)cc1)S(=O)(=O)c1cc(C(=O)O)c(O)c2ccccc12 [Compound 3ca, 4-(N-(4-Bromophenyl)-N-isobutylsulfamoyl)-1-hydroxy-2-naphthoic Acid]"
2,-6.31,"COc1c(C(=O)O)cc(S(=O)(=O)N(CC(C)C)c2ccc(Br)cc2)c2ccccc12 [Compound 3cd, 4-(N-(4-Bromophenyl)-N-isobutylsulfamoyl)-1-methoxy-2-naphthoic Acid]"
3,>-4.50,"COC(=O)c1cc(S(=O)(=O)N(CC(C)C)c2ccc(Br)cc2)c2ccccc2c1O [Compound 3cb, Methyl 4-(N-(4-bromophenyl)-N-isobutylsulfamoyl)-1-hydroxy-2-naphthoate]"
